Assay results from US12357649B2, “Glycoalkaloid combinations and various uses thereof” (priority 2016, dated 2025).

Assay: Stability of cream formulation: HPLC assay of solamargine
Format: physicochemical
Conditions: cream with 5% urea, 10% salicylic, 25°C, 60% RH
Method: Visual appearance was conducted by comparison to standard commercially available solamargine cream composition. High-Performance Liquid Chromatography (HPLC) to determine quantity of solamargine in the cream, substantially as described in WO 2000061153 A1.

C[C@@H]1CC[C@@]2(NC1)O[C@H]1C[C@H]3[C@@H]4CC=C5C[C@@H](O[C@@H]6O[C@H](CO)[C@@H](O[C@@H]7O[C@@H](C)[C@H](O)[C@@H](O)[C@H]7O)[C@H](O)[C@H]6O[C@@H]6O[C@@H](C)[C@H](O)[C@@H](O)[C@H]6O)CC[C@]5(C)[C@H]4CC[C@]3(C)[C@H]1[C@@H]2C [Solamargine, (22R,25R)-spiro-5-en-3β-yl-α-L-rhamnopyranosyl-(1→2glu)-O-α-L-rhamnopyranosyl-(1→4glu)-β-D-gluco-pyranose]
HPLC Assay Solamargine (10% lactic acid, 1% Xanthan gum, 0 months): 20.6 μg/g cream | HPLC Assay Solamargine (10% lactic acid, 1% Xanthan gum, 3 months): 23.1 μg/g cream | HPLC Assay Solamargine (10% lactic acid, 1% Xanthan gum, 6 months): 19.8 μg/g cream | HPLC Assay Solamargine (10% lactic acid, 1% Xanthan gum, 9 months): 21.2 μg/g cream | HPLC Assay Solamargine (10% lactic acid, 1% Xanthan gum, 12 months): 23.1 μg/g cream | HPLC Assay Solamargine (10% lactic acid, 1% Xanthan gum, 18 months): 20.4 μg/g cream | HPLC Assay Solamargine (10% lactic acid, 1% Xanthan gum, 24 months): 22.1 μg/g cream | HPLC Assay Solamargine (10% lactic acid, 1% Xanthan gum, 36 months): 19.8 μg/g cream | HPLC Assay Solamargine (10% lactic acid, 1% Xanthan gum, 42 months): 19.6 μg/g cream | HPLC Assay Solamargine (10% lactic acid, 1% Xanthan gum, 48 months): 21.2 μg/g cream | HPLC Assay Solamargine (no lactic acid, no emulsion-stabilising agent, 0 months): 18.3 μg/g cream | HPLC Assay Solamargine (no lactic acid, no emulsion-stabilising agent, 3 months): 19 μg/g cream | HPLC Assay Solamargine (no lactic acid, no emulsion-stabilising agent, 6 months): 21.1 μg/g cream | HPLC Assay Solamargine (no lactic acid, no emulsion-stabilising agent, 9 months): 9.2 μg/g cream | HPLC Assay Solamargine (no lactic acid, no emulsion-stabilising agent, 12 months): 7.3 μg/g cream | HPLC Assay Solamargine (no lactic acid, no emulsion-stabilising agent, 18 months): 6.8 μg/g cream | HPLC Assay Solamargine (no lactic acid, no emulsion-stabilising agent, 24 months): 5.1 μg/g cream | HPLC Assay Solamargine (no lactic acid, no emulsion-stabilising agent, 36 months): 5.3 μg/g cream | HPLC Assay Solamargine (no lactic acid, no emulsion-stabilising agent, 42 months): 5.1 μg/g cream | HPLC Assay Solamargine (no lactic acid, no emulsion-stabilising agent, 48 months): 5.2 μg/g cream
